Test results taken from patent publication US10472401B2, “Peptides and combination of peptides for use in immunotherapy against ovarian cancer and other cancers” (immatics biotechnologies GmbH, priority 2015, dated 2019).

How the values were obtained:
CD8+ T cells = test: In vitro immunogenicity: priming of CD8+ T cells with aAPCs loaded with peptide/MHC and anti-CD28, multimer staining; assay type: cell-based, human; conditions: for Wells positive [%]: HLA-A*02 restricted peptides, percentage of positive wells (among evaluable); for wells: positive wells
Source text: In order to obtain information regarding the immunogenicity of the TUMAPs of the present invention, the inventors performed investigations using an in vitro T-cell priming assay based on repeated stimulations of CD8+ T cells with artificial antigen presenting cells (aAPCs) loaded with peptide/MHC complexes and anti-CD28 antibody.
In order to perform in vitro stimulations by artificial antigen presenting cells loaded with peptide-MHC complex (pMHC) and anti-CD28 antibody, the inventors first isolated CD8+ T cells from fresh HLA-A*02 leukopheresis products via positive selection using CD8 microbeads (Miltenyi Biotec, Bergisch-Gladbach, Germany) of healthy donors obtained from the University clinics Mannheim, Germany, after informed consent.
PBMCs and isolated CD8+ lymphocytes were incubated in T-cell medium (TCM) until use consisting of RPMI-Glutamax (Invitrogen, Karlsruhe, Germany) supplemented with 10% heat inactivated human AB serum (PAN-Biotech, Aidenbach, Germany), 100 U/ml Penicillin/100 μg/ml Streptomycin (Cambrex, Cologne, Germany), 1 mM sodium pyruvate (CC Pro, Oberdorla, Germany), 20 μg/ml Gentamycin (Cambrex). 2.5 ng/ml IL-7 (PromoCell, Heidelberg, Germany) and 10 U/ml IL-2 (Novartis Pharma, Nürnberg, Germany) were also added to the TCM at this step.
Generation of pMHC/anti-CD28 coated beads, T-cell stimulations and readout was performed in a highly defined in vitro system using four different pMHC molecules per stimulation condition and 8 different pMHC molecules per readout condition.
The purified co-stimulatory mouse IgG2a anti human CD28 Ab 9.3 (Jung et al., 1987) was chemically biotinylated using Sulfo-N-hydroxysuccinimidobiotin as recommended by the manufacturer (Perbio, Bonn, Germany). Beads used were 5.6 μm diameter streptavidin coated polystyrene particles (Bangs Laboratories, Illinois, USA).
pMHC used for positive and negative control stimulations were A*0201/MLA-001 (peptide […] (SEQ ID NO. 664) from modified Melan-A/MART-1) and A*0201/DDX5-001 ([…] from DDX5, SEQ ID NO. 665), respectively.
800.000 beads/200 μl were coated in 96-well plates in the presence of 4×12.5 ng different biotin-pMHC, washed and 600 ng biotin anti-CD28 were added subsequently in a volume of 200 μl. Stimulations were initiated in 96-well plates by co-incubating […] CD8+ T cells with 2×10^5 washed coated beads in 200 μl TCM supplemented with 5 ng/ml IL-12 (PromoCell) for 3 days at 37° C. Half of the medium was then exchanged by fresh TCM supplemented with 80 U/ml IL-2 and incubating was continued for 4 days at 37° C. This stimulation cycle was performed for a total of three times. For the pMHC multimer readout using 8 different pMHC molecules per condition, a two-dimensional combinatorial coding approach was used as previously described (Andersen et al., 2012) with minor modifications encompassing coupling to 5 different fluorochromes. Finally, multimeric analyses were performed by staining the cells with Live/dead near IR dye (Invitrogen, Karlsruhe, Germany), CD8-FITC antibody clone SK1 (BD, Heidelberg, Germany) and fluorescent pMHC multimers. For analysis, a BD LSRII SORP cytometer equipped with appropriate lasers and filters was used. Peptide specific cells were calculated as percentage of total CD8+ cells. Evaluation of multimeric analysis was done using the FlowJo software (Tree Star, Oregon, USA). In vitro priming of specific multimer+ CD8+ lymphocytes was detected by comparing to negative control stimulations.
Exemplary flow cytometry results after TUMAP-specific multimer staining for two peptides of the invention are shown in FIG. 3 together with corresponding negative controls.

HLA-A*02:01 = HLA-A*02:01 (Homo sapiens, UniProt P04439, D140Y/D185E/D98H/E176V/E277Q/G131W/G231S/I119V/I121R/I166T/I218V/L300P/L318F/N151K/N90K/P208A/P217A/Q86G/Q94H/R138H/R169H/T345S); test: MHC binding assay (UV-ligand exchange, ELISA of stabilized MHC complexes); conditions: MHC class I binding score; binding to HLA-A*02:01 ranged by peptide exchange yield (UV-ligand exchange, ELISA)
Summary of the method: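 Binding scored as exchange yield, detected via β2m of stabilized complexes in an HRP/TMB ELISA read at 450 nm after streptavidin capture of 100-fold diluted monomers for 1 h at 37 °C. Complexes came from UV irradiation cleaving a photolabile peptide, exchanged for the candidate.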

Row | Substance | Peptide exchange (HLA-A*02:01) | Wells positive [%] (CD8+ T cells) | wells (CD8+ T cells; HLA class I peptides) | donors (CD8+ T cells; HLA class I peptides, positive donors)
1 | 2 (SLLEADPFL; listed as Homo sapiens) [compound 2] | ″+++″ (≥50% = +++) | ″+″ (<20% = +) |  | 
2 | 3 (SLASKLTTL; listed as Homo sapiens) [compound 3] | ″++++″ (≥75% = ++++) | ″+″ (<20% = +) |  | 
3 | 8 (FTLGNVVGMYL; listed as Homo sapiens) [compound 8] | ″++++″ (≥75% = ++++) | ″+″ (<20% = +) |  | 
4 | 11 (KIFEMLEGV; listed as Homo sapiens) [compound 11] | ″+++″ (≥50% = +++) | ″+″ (<20% = +) |  | 
5 | 36 (YVLEDLEVTV; listed as Homo sapiens) [compound 36] | ″++″ (≥20% = ++) | ″+″ (<20% = +) |  | 
6 | 38 (FLLEDDIHVS; listed as Homo sapiens) [compound 38] | ″+++″ (≥50% = +++) | ″+″ (<20% = +) |  | 
7 | 48 (ALAELYEDEV; listed as Homo sapiens) [compound 48] | ″+++″ (≥50% = +++) | ″+″ (<20% = +) |  | 
8 | 56 (KLYEGIPVLL; listed as Homo sapiens) [compound 56] | ″++++″ (≥75% = ++++) | ″+″ (<20% = +) |  | 
9 | 60 (SLTIDGIYYV; listed as Homo sapiens) [compound 60] | ″++++″ (≥75% = ++++) | ″++++″ (> = 70% = ++++) |  | 
10 | 652 (TLWYRAPEV; listed as Homo sapiens) [compound 652] |  |  |  | ++++ (> = 70% = ++++)
11 | 659 (ILFPDIIARA; listed as Homo sapiens) [compound 659] |  |  | + (<20% = +) | 
12 | 662 (KIQEILTQV; listed as Homo sapiens) [compound 662] |  |  | + (<20% = +) | 
13 | 663 (KIQEMQHFL; listed as Homo sapiens) [compound 663] |  |  | + (<20% = +) | 

Further lines, with some results ahead:

Row | Peptide exchange (HLA-A*02:01) | Substance | Wells positive [%] (CD8+ T cells) | wells (CD8+ T cells; HLA class I peptides) | donors (CD8+ T cells; HLA class I peptides, positive donors)
14 | ″+++″ (≥50% = +++) | 79 (SLFIGEKAVLL; listed as Homo sapiens) [compound 79] | ″+″ (<20% = +) |  | 
15 | ″+++″ (≥50% = +++) | 113 (GLLPTPLFGV; listed as Homo sapiens) [compound 113] | ″+″ (<20% = +) |  | 
16 | ″+++″ (≥50% = +++) | 118 (KLIDNNINV; listed as Homo sapiens) [compound 118] | ″+″ (<20% = +) |  | 
17 | ″++″ (≥20% = ++) | 141 (YLDFSNNRL; listed as Homo sapiens) [compound 141] | ″+″ (<20% = +) |  | 
18 | ″++++″ (≥75% = ++++) | 143 (LLLDITPEI; listed as Homo sapiens) [compound 143] | ″+″ (<20% = +) |  | 
19 | ″+++″ (≥50% = +++) | 150 (RLWEEGEELEL; listed as Homo sapiens) [compound 150] | ″+″ (<20% = +) |  | 
20 | ″+++″ (≥50% = +++) | 166 (YLNHLEPPV; listed as Homo sapiens) [compound 166] | ″++++″ (> = 70% = ++++) |  | 
21 | ″+++″ (≥50% = +++) | 199 (ALQDVPLSSV; listed as Homo sapiens) [compound 199] | ″+″ (<20% = +) |  | 
22 | ″+++″ (≥50% = +++) | 247 (VLLPNDLLEKV; listed as Homo sapiens) [compound 247] | ″+″ (<20% = +) |  | 
23 | ″+++″ (≥50% = +++) | 283 (ALYIGDGYVIHLA; listed as Homo sapiens) [compound 283] |  | + (<20% = +) | 
24 | ″++″ (≥20% = ++) | 319 (SLEPQIQPV; listed as Homo sapiens) [compound 319] | ″+″ (<20% = +) |  | 
25 | ″+++″ (≥50% = +++) | 384 (ILFANPNIFV; listed as Homo sapiens) [compound 384] | ″+″ (<20% = +) |  | 
